Results: article PMC5063977 (The Journal of Biological Chemistry, 2016)

Tests used:
RAMP3-CLR (AM2 receptor) = target: T1, RAMP3-CLR (AM2 receptor) (Homo sapiens, UniProt O60896+Q16602); assay: S. cerevisiae growth assay, GPA1/Gαq chimera, RAMP3 + CLR; assay type: cell-based; settings: percentage of yeast strain MMY11 (lacking GPA1); 24-h; mean ± S.E., n = 6
T1 construct: FLAG; expressed in transfected cells; host or cells: HEK-293 or HEK-293S cells, transient transfection, 1:1 RAMP:CLR
Method: (§1) FIGURE 7. […] Reporter gene activity was determined following 24-h stimulation. All data are expressed as percentage of the maximum response observed in yeast strain MMY11 and are means ± S.E. of n individual data sets. D, Bar chart showing the efficacy of each ligand for each RAMP-CLR combination at the Gαq chimera determined via application of the operational model of receptor agonism (Ref. [34] and Table 1). Data were determined as statistically different from the cognate ligand for each receptor (***, p < 0.001; ****, p < 0.0001) using one-way ANOVA with Bonferroni's post-test. E, signaling bias plots were calculated as ΔΔ(τ/Ka) values on a logarithmic scale for each ligand and for each chimera G protein for the three individual RAMP-CLR complexes.
(§2) General yeast procedures were performed as described previously ([22], [24]). […] Receptor signaling was measured using the yeast growth assay as described previously ([24]). […] A fluorescein signal was detected as an increase in fluorescence (excitation wavelength = 485 nm, emission wavelength = 535 nm) as a measure of growth. Different concentrations of ligand (0.01 nM–100 μM) were assayed using 96-well plates, and fluorescence was detected using a Tecan Infinite M200 microplate reader (Tecan Ultra Evolution, Reading, UK) or a Mithras LB 940 microplate reader (Berthold Technologies, Harpenden, UK) for 20 h. […]

RAMP2-CLR (AM1 receptor) = target: T2, RAMP2-CLR (AM1 receptor) (Homo sapiens, UniProt O60895+Q16602); assay: S. cerevisiae growth assay, GPA1/Gαq chimera, RAMP2 + CLR; assay type: cell-based; settings: percentage of yeast strain MMY11 (lacking GPA1); 24-h; mean ± S.E., n = 6
T2 construct: FLAG; expressed in transfected cells; host or cells: HEK-293 or HEK-293S cells, transient transfection, 1:1 RAMP:CLR
T2 sequence (Q16602 23-461): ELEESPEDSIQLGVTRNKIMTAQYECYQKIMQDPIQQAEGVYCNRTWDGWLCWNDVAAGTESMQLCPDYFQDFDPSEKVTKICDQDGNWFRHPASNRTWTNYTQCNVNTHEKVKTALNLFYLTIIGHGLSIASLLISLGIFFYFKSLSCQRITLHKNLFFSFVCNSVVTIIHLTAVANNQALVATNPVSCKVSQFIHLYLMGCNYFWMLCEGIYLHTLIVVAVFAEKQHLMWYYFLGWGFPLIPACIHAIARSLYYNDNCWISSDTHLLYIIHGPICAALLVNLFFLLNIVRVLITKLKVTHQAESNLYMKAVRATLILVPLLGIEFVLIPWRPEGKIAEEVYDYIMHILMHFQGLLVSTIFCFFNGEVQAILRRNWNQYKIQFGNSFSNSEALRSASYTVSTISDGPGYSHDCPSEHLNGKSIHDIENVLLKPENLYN
T2 sequence (O60895 43-175): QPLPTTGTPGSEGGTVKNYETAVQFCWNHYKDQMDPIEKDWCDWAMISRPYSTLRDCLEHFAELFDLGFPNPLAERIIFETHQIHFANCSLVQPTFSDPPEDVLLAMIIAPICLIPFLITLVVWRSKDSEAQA
Method: as §1, §2

T1 sequence (Q16602 23-461): as the sequence (Q16602 23-461) above
T1 sequence (O60896 24-148): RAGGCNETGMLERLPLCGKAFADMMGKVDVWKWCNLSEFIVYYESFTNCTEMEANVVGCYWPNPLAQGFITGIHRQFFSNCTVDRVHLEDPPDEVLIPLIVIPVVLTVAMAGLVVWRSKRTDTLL

Emax (RAMP3-CLR (AM2 receptor)) | Emax (RAMP2-CLR (AM1 receptor)) | Structure (SMILES)
25.6 ± 2% |  | CC[C@H](C)[C@H](NC(=O)[C@H](CCC(N)=O)NC(=O)[C@H](Cc1c[nH]cn1)NC(=O)[C@H](C)NC(=O)[C@H](CC(C)C)NC(=O)[C@H](CCCCN)NC(=O)[C@H](CCC(N)=O)NC(=O)[C@@H](NC(=O)[C@@H](NC(=O)[C@@H]1CSSC[C@H](NC(=O)CNC(=O)[C@H](Cc2ccccc2)NC(=O)[C@H](CO)NC(=O)[C@H](CCCNC(=N)N)NC(=O)[C@H](CC(C)C)NC(=O)CNC(=O)[C@H](CCC(N)=O)NC(=O)[C@H](Cc2ccccc2)NC(=O)[C@H](CC(N)=O)NC(=O)[C@H](CC(N)=O)NC(=O)[C@H](CCSC)NC(=O)[C@H](CO)NC(=O)[C@H](CCC(N)=O)NC(=O)[C@H](CCCNC(=N)N)NC(=O)[C@@H](N)Cc2ccc(O)cc2)C(=O)N[C@@H](CCCNC(=N)N)C(=O)N[C@@H](Cc2ccccc2)C(=O)NCC(=O)N[C@@H]([C@@H](C)O)C(=O)N1)[C@@H](C)O)C(C)C)C(=O)N[C@@H](Cc1ccc(O)cc1)C(=O)N[C@@H](CCC(N)=O)C(=O)N[C@@H](Cc1ccccc1)C(=O)N[C@H](C(=O)N[C@@H](CC(=O)O)C(=O)N[C@@H](CCCCN)C(=O)N[C@@H](CC(=O)O)C(=O)N[C@@H](CCCCN)C(=O)N[C@@H](CC(=O)O)C(=O)N[C@@H](CC(N)=O)C(=O)N[C@H](C(=O)N[C@@H](C)C(=O)N1CCC[C@H]1C(=O)N[C@@H](CCCNC(=N)N)C(=O)N[C@@H](CO)C(=O)N[C@@H](CCCCN)C(=O)N[C@H](C(=O)N[C@@H](CO)C(=O)N1CCC[C@H]1C(=O)N[C@@H](CCC(N)=O)C(=O)NCC(=O)N[C@@H](Cc1ccc(O)cc1)C(N)=O)[C@@H](C)CC)C(C)C)[C@@H](C)O [AM, adrenomedullin]
 | 11.3 ± 1.3% | CSCC[C@H](NC(=O)[C@H](CC(C)C)NC(=O)[C@H](CCC(N)=O)NC(=O)[C@H](Cc1c[nH]c2ccccc12)NC(=O)[C@H](CC(C)C)NC(=O)[C@H](CCCNC(=N)N)NC(=O)[C@H](Cc1c[nH]cn1)NC(=O)[C@H](CO)NC(=O)[C@H](CC(C)C)NC(=O)[C@H](CC(N)=O)NC(=O)[C@H](CCC(N)=O)NC(=O)[C@@H](NC(=O)[C@H](CCC(N)=O)NC(=O)[C@@H]1CSSC[C@H](NC(=O)CNC(=O)[C@@H](NC(=O)[C@H](CCCNC(=N)N)NC(=O)[C@H](CC(C)C)NC(=O)[C@H](CC(C)C)NC(=O)[C@H](CCC(N)=O)NC(=O)[C@H](C)NC(=O)[C@H](CCC(N)=O)NC(=O)[C@@H](N)[C@@H](C)O)C(C)C)C(=O)N[C@@H](C(C)C)C(=O)N[C@@H](CC(C)C)C(=O)NCC(=O)N[C@@H]([C@@H](C)O)C(=O)N1)C(C)C)C(=O)NCC(=O)N1CCC[C@H]1C(=O)N[C@@H](C)C(=O)NCC(=O)N[C@@H](CCCNC(=N)N)C(=O)N[C@@H](CCC(N)=O)C(=O)N[C@@H](CC(=O)O)C(=O)N[C@@H](CO)C(=O)N[C@@H](C)C(=O)N1CCC[C@H]1C(=O)N[C@H](C(=O)N[C@@H](CC(=O)O)C(=O)N1CCC[C@H]1C(=O)N[C@@H](CO)C(=O)N[C@@H](CO)C(=O)N1CCC[C@H]1C(=O)N[C@@H](Cc1c[nH]cn1)C(=O)N[C@@H](CO)C(=O)N[C@@H](Cc1ccc(O)cc1)C(N)=O)C(C)C [AM2, adrenomedullin 2]
